Reference: patent US20260374739A1, “SMALL MOLECULAR WEIGHT CHEMICAL COMPOUND TO ANTAGONIZE EPH-EPHRIN TETRAMERIZATION AND INHIBIT BIDIRECTIONAL SIGNALING” (THE BOARD OF REGENTS OF THE UNIVERSITY OF TEXAS SYSTEM, priority 2022, published 2026)
Several values for one entry are separate records, joined by “and”; a condition that tells them apart may be missing. Equal entries are not always repeated. Entries after “also recorded” stand apart in the source; their conditions may differ. Where two headings read alike, the source gives them in different places.

Legend:
[1] = molecular target: T1, EphB1-EphrinB2 (Rattus norvegicus, UniProt P09759); experiment: Octet RED384, immobilized rat EphB1-Fc binding to 30 nM mouse EB2-His (400 sec / 500 sec); design: species or system mouse EphrinB2
T1 construct: rat EphB1-Fc residues 18-538; mouse EB2-His residues 18-232; purchased R&D Systems (EphB1-Fc); Sino Biologicals (EB2-His)
T1 sequence (P09759 18-538): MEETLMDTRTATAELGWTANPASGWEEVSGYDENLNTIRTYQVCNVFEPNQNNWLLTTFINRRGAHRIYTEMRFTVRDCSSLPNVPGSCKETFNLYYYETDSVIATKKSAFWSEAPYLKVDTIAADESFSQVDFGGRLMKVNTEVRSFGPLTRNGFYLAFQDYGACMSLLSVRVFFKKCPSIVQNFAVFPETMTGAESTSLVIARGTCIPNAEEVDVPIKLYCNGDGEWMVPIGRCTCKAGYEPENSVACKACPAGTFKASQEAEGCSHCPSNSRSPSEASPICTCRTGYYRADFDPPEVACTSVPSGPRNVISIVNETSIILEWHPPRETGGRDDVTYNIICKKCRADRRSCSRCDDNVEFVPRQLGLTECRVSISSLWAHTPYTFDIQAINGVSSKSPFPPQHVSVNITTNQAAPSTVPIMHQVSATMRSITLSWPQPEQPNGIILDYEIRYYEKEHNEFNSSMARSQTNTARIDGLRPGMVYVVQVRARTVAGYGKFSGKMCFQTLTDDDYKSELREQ
Method: FIGS. 9A-9B depict Octet RED384 kinetic analysis sensorgram data of 30 nM soluble mouse EphrinB2 (mEB2-His) protein binding to sensorchip immobilized rat EphB1-Fc (FIG. 9A) or mouse EphB4-Fc (FIG. 9B) protein and effect of increased concentration of A20. Association time was for 400 sec and dissociation time was for 500 sec. Binding assays were conducted in PBS containing 0.05% Tween-20 and 1% DMSO.
The experiments described above involve measurements following long-term incubation of proteins with compound and thus represent information after interaction homeostasis has been achieved (FIG. 5A, FIG. 5B, FIG. 5C, and FIG. 5D) or after complexes are extensively washed (ELISAs and pulldowns, FIG. 8). To further analyze biophysical activity of A20 in real-time, kinetic studies were performed using an Octet® RED384 system to visualize the effect of compound on EphB1-EB2 protein-protein binding dynamics. In these experiments, EphB1-Fc ectodomain protein was first sparsely immobilized onto a set of Octet biosensors, […], 1, 10, or 100 μM A20 for a 400 sec association step followed by exposure to buffer only for a 500 sec dissociation step. […] The sensorgram provides various data of the binding kinetics, such as on rates (kon), off rates (koff), and equilibrium dissociation constant (KD). […] Specifically, EphB2 forms a dimer with EphrinB2, and that two dimers then assemble together into a circular tetramer structure (see FIG. 10 and Himanen J P, Rajashankar K R, Lackmann M, Cowan C A, Henkemeyer M, and Nikolov DB. (2001). Crystal structure of an Eph receptor-ephrin complex. Nature 414:933-8, which is incorporated herein by reference in its entirety).
The distinct dimerization and tetramerization interfaces are indicated. Circular tetramers further cluster together to pack in the crystal via additional ligand-ligand (red arrow) and receptor-receptor (blue arrow) interfaces. Many studies by multiple groups show the circular tetramer and tetramer clusters are observed in vivo and that they are needed in order to form the active complex necessary for the transduction of Eph-Ephrin bidirectional signals. […] A variety of methods can be used to compare the different sensorgrams obtained from a dose-dependent run of a drug compound to quantify its LA activity and obtain IC50 information. Single time points in the assay can be picked and response signals obtained at the different compound doses can be compared, such as at 380 sec near the end of the association step or at 100 sec after start of the dissociation step.
Antagonists are classified as either competitive/reversible or irreversible, depending on how the particular inhibitor interacts with its protein targets. A reversible antagonist will bind receptor protein via non-covalent intermolecular forces, and it will eventually dissociate from the receptor, freeing the protein to bind either another antagonist chemical in the solution or its bona-fide ligand protein. […] A competitive antagonist is thought to bind to receptor protein at the same binding site/interface as the endogenous ligand (aka Ephrin), but without activating the receptor. Ligand and antagonist will thus compete for the same binding site on the receptor; when antagonist is bound to receptor it will prevent ligand binding and increasing concentrations of an antagonist will displace in a dose-dependent fashion the ability of ligand from binding the receptor. Since, most receptor antagonists participate in a reversible, non-covalent, competitive type of interaction, two Octet experiments were conducted to determine if this was indeed the mode of action of A20. To determine if A20 is a reversible inhibitor/antagonist, rEphB1-Fc was first immobilized onto sensor chips, then pre-exposed to 100 μM A20, then washed to remove A20, and after baseline measurements then tested for binding to 30 nM soluble mEB2-His protein. […]

[2] = molecular target: T2, EphB4-EphrinB2 (Mus musculus, UniProt P54761); experiment: Octet RED384, immobilized mouse EphB4-Fc binding to mouse EB2-His
T2 construct: biosensor immobilized rodent EphB1-Fc and EphB4-Fc ectodomain proteins; mouse EB2-His residues 18-232; purchased R&D Systems (EphB-Fc); Sino Biologicals (EphrinB-His)
T2 sequence (P54761 16-539 limits assumed): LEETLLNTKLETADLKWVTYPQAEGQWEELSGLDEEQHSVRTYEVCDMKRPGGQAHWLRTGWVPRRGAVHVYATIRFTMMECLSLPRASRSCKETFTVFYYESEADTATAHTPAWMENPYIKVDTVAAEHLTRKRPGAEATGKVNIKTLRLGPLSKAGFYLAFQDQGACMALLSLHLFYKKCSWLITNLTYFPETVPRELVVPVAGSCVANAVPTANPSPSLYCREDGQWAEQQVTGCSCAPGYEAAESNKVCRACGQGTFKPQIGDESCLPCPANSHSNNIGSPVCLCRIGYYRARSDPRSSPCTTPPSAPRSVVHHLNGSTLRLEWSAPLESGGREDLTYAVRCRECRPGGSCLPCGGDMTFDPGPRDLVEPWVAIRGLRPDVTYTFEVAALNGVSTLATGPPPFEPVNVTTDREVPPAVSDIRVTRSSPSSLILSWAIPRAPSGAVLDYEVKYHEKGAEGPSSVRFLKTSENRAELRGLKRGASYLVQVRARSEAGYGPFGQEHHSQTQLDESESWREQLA
Method: […] Association time was for 400 sec and dissociation time was for 500 sec. Binding assays were conducted in PBS containing 0.05% Tween-20 and 1% DMSO.

[3] = Relative Dissociation IC50, rEphB1-mEphrinB2, immobilized rat EphB1, 50 nM soluble mouse EphrinB2, dissociation, relative
[4] = rEphB1-mEphrinB2, immobilized rat EphB1, 50 nM soluble mouse EphrinB2, association, absolute, read-out: Absolute Association IC50
[5] = rEphB1-mEphrinB2, immobilized rat EphB1, 50 nM soluble mouse EphrinB2, association, relative, read-out: Relative Association IC50
[6] = mEphB4-mEphrinB2, immobilized mouse EphB4, 50 nM soluble mouse EphrinB2, association, absolute, read-out: Absolute Association IC50
[7] = mEphB4-mEphrinB2, immobilized mouse EphB4, 50 nM soluble mouse EphrinB2, association, relative, read-out: Relative Association IC50
[8] = mEphB4-mEphrinB2, immobilized mouse EphB4, 50 nM soluble mouse EphrinB2, dissociation, absolute, read-out: Absolute Dissociation IC50
[9] = mEphB4-mEphrinB2, immobilized mouse EphB4, 50 nM soluble mouse EphrinB2, dissociation, relative, read-out: Relative Dissociation IC50
[10] = Absolute Dissociation IC50, rEphB1-mEphrinB2, immobilized rat EphB1, 50 nM soluble mouse EphrinB2, dissociation, absolute
[11] = EphB1-EB2, AUC, read-out: IC50 (area under the curve)
[12] = rEphB1-mEphrinB2, immobilized rat EphB1, 50 nM soluble mouse EphrinB2, dissociation, absolute, read-out: Absolute Dissociation IC50

O=S1(=O)CCN(Cc2ccc(O)c3ncccc23)CC1 [Compound 15, 4-((8-hydroxyquinolin-1-ium-5-yl)methyl)thiomorpholin-4-ium 1,1-dioxide chloride]
IC50 [1, 3]: 900 nM | IC50 [1, 4]: 100000 nM | IC50 [1, 5]: 100000 nM | IC50 [2, 6]: 100000 nM | IC50 [2, 7]: > 10000 nM | IC50 [2, 8]: 13200 nM | IC50 [2, 9]: 630 nM

O=[N+]([O-])c1cc(CN2CCOCC2)c2cccnc2c1O [Compound 10, 4-((8-hydroxy-7-nitroquinolin-1-ium-5-yl)methyl)morpholin-4-ium chloride]
IC50 [1, 10]: 2480 nM | IC50 [1, 3]: 1990 nM | IC50 [1, 4]: 99000 nM | IC50 [1, 5]: 5390 nM | IC50 [2, 6]: 100000 nM | IC50 [2, 7]: 6380 nM | IC50 [2, 8]: 2630 nM | IC50 [2, 9]: 2380 nM

Oc1c(Br)cc(CN2CCOCC2)c2cccnc12 [Compound 6, 4-((7-bromo-8-hydroxyquinolin-1-ium-5-yl)methyl)morpholin-4-ium chloride]
IC50 ([1]; 100 sec dissociation, read-out: IC50 (response at 100 sec after dissociation step)): 2400 nM | IC50 ([1]; 380 sec association, read-out: IC50 (response at 380 sec after association)): 3090 nM | IC50 [1, 11]: 3630 nM | antagonist activity of salt vs free-base ([1]; fold better than free-base): 2-3 fold | IC50 [1, 4]: 28400 nM | IC50 [1, 5]: 740 nM | IC50 [2, 6]: 100000 nM | IC50 [2, 7]: 220 nM | IC50 [2, 8]: 410 nM | IC50 [2, 9]: 220 nM

Oc1c(I)cc(CN2CCOCC2)c2cccnc12 [Compound 8, 4-((8-hydroxy-7-iodoquinolin-1-ium-5-yl)methyl)morpholin-4-ium chloride]
IC50 [1, 4]: > 1600 nM and 100000 nM | IC50 [1, 5]: 280 nM and 530 nM | IC50 [1, 12]: 710 nM and 510 nM | IC50 ([1]; rEphB1-mEphrinB2, immobilized rat EphB1, 50 nM soluble mouse EphrinB2, dissociation, relative, read-out: Relative Dissociation IC50): 510 nM and 450 nM | IC50 [2, 6]: > 1600 nM and 100000 nM | IC50 [2, 7]: 510 nM and 340 nM | IC50 [2, 8]: 650 nM and 680 nM | IC50 [2, 9]: 530 nM

Oc1c(Br)cc(CN2CCOCC2)c2cccnc12 [Compound 5, 7-bromo-5-(morpholinomethyl)quinolin-8-ol]
IC50 [1, 11]: 9330 nM | mode of antagonism ([1]; reversibility 100 μM pre-exposure, competition 0.1-1000 nM EB2, listed as A20): compound acts as a reversible inhibitor; also recorded: compound is a competitive inhibitor of EphB1-EB2 binding | IC50 ([2]; EphB4-EB2, read-out: area under the curve IC50): > 100000 nM

Oc1ccc(CN2CCOCC2)c2cccnc12 [Compound 1, 5-(morpholinomethyl)quinolin-8-ol]
IC50 [1, 3]: 3290 nM | IC50 [1, 4]: 100000 nM | IC50 [1, 5]: 100000 nM | IC50 [1, 12]: 100000 nM | IC50 [2, 6]: 100000 nM | IC50 [2, 7]: 100000 nM | IC50 [2, 8]: 100000 nM

Oc1c(Cl)cc(CN2CCOCC2)c2cccnc12 [Compound 4, 4-((7-chloro-8-hydroxyquinolin-1-ium-5-yl)methyl)morpholin-4-ium chloride]
IC50 [1, 10]: 830 nM | IC50 [1, 3]: 640 nM | IC50 [1, 4]: 14200 nM | IC50 [1, 5]: 930 nM | IC50 [2, 6]: > 10000 nM | IC50 [2, 7]: 3190 nM | IC50 [2, 8]: 840 nM | IC50 [2, 9]: 530 nM

Oc1ccc(CN2CCN(Cc3ccc(C(F)(F)F)cc3)CC2)c2cccnc12 [Compound 48, 5-((4-(4-(trifluoromethyl)benzyl)piperazin-1-yl)methyl)quinolin-8-ol]
IC50 [1, 10]: 15100 nM | IC50 [1, 3]: 2370 nM | IC50 [1, 4]: 100000 nM | IC50 [1, 5]: > 10000 nM | IC50 [2, 7]: 8240 nM | IC50 [2, 9]: 1890 nM
